Measurements taken from patent US20070254853A1, “Compositions and Methods for Promotion of Wound Healing” (BOARD OF REGENTS, THE UNIVERSITY OF TEXAS SYSTEM, priority 2006, published 2007).

Legend:
[1] = system: 8 mm full thickness dorsal skin punch wound; assay: Sirolimus dose response on healing of a full thickness skin punch wound; type: in vivo, Balb/c mice
Protocol: Sirolimus is an effective immunosuppressant that has been associated with delayed wound healing. On a full thickness skin murine model of immunosuppression and decreased wound healing, the Sirolimus dose that delayed wound healing was first determined.
Methods: For 2 weeks Balb/c mice were gavage-fed saline, 4 mg/kg, 8 mg/kg or 12 mg/kg Sirolimus (10 per group). After drug loading, an 8 mm in diameter full thickness dorsal skin punch wound was made in each mouse. Every second day digital pictures of the wound were taken and analyzed. After determining the effective Sirolimus dose that causes decreased wound healing and immunosuppression, 40 Balb/c mice were gavaged with 8 mg/kg of Sirolimus every other day. After establishing the punch wounds, the mono and dinucleotides were applied topically daily. The topical treatment was applied using the following formulations (10 mice per group): a mixture of mono and dinucleotides derived from RNA in 0.025%, 0.25% and 2.5% concentrations and one group with KY jelly as control. Every second day a digital picture was taken and wound size measured. P2Y2 receptor expression was qualitatively assessed using immunohistology and receptor specific antibodies. T-test was used to compare the groups.

[2] = system: 4 mm punch wound on the dorsal surface; assay: Topical applications for wound healing in mice (4 mm punch wound, three dietary groups); type: in vivo, Balb/c mice; settings: 100 μM topical, in place of uracil; with or without CCM; four times over two weeks
Description: Balb/c mice were divided into three dietary groups (F=normal mouse chow; NF=nucleotide free mouse chow; and NFR=nucleotide free mouse chow supplemented with yeast RNA). Each group was fed before initiation of wounds. After 4 weeks of feeding, a 4 mm punch wound was created on the dorsal surface of each mouse, using a 4 mm biopsy punch. The wounds were coated with four different topical agents: (1) saline; (2) uracil ([…]); (3) saline+CCM; and (4) Uracil+CCM (CCM=crosslinked collagen mesh). CCM (“Collagen Permeable Membrane”) from Accurate Chemical & Scientific Corporation, Catalog No. YIC 152299. Four mm size circles were soaked with appropriate nucleotide or saline solution (4 mm punch wounds) and used to dress the wounds.
Twelve groups were formed from these combinations (n=3). Mice were continued on their respective diets. Wounds were observed visually and photographed at four different times during the period of two weeks. These studies were repeated using a 100 μM concentration of inosine in place of uracil as the topical agent.

Row | effect on wound healing ([1]; 4 mg/kg gavage for 2 weeks) | Structure (SMILES) | effect on wound healing ([1]; 8 mg/kg gavage for 2 weeks, day 4 and after) | effect on wound healing ([1]; 12 mg/kg gavage for 2 weeks, day 4 and after) | wound healing, wounds observed visually and photographed [2]
1 | no effect on wound healing | CO[C@H]1C[C@@H]2CC[C@@H](C)[C@@](O)(O2)C(=O)C(=O)N2CCCC[C@H]2C(=O)O[C@H]([C@H](C)C[C@@H]2CC[C@@H](O)[C@H](OC)C2)CC(=O)[C@H](C)/C=C(\C)[C@@H](O)[C@@H](OC)C(=O)[C@H](C)C[C@H](C)/C=C/C=C/C=C/1C [Sirolimus] | delayed wound healing in a significant manner | delayed wound healing in a significant manner | 
2 |  | OC[C@H]1O[C@@H](n2cnc3c(O)ncnc32)[C@H](O)[C@@H]1O [inosine] |  |  | no significant differences from that which was seen with the uracil
